Source: the NIST ThermoML archive (doi:10.1021/je700260f)

Conditions: Liquid, Vibrating tube method

FC(C(F)(F)F)C(F)(F)F [1,1,1,2,3,3,3-heptafluoropropane]
Conditions | mass density [kg/m3]
333.16 K, 17241 kPa | 1375.9
333.16 K, 17263 kPa | 1376.1
333.16 K, 17300 kPa | 1376.3
333.16 K, 17322 kPa | 1376.4
333.16 K, 17351 kPa | 1376.5
333.16 K, 17370 kPa | 1376.8
333.16 K, 17482 kPa | 1377.4
333.16 K, 17509 kPa | 1377.4
333.16 K, 17532 kPa | 1377.7
333.16 K, 17563 kPa | 1377.9
333.16 K, 17589 kPa | 1378
333.16 K, 17619 kPa | 1378.1
333.16 K, 17654 kPa | 1378.4
333.16 K, 17680 kPa | 1378.6
333.16 K, 17707 kPa | 1378.7
333.16 K, 17741 kPa | 1378.9
333.16 K, 17766 kPa | 1379.1
333.16 K, 17788 kPa | 1379.2
333.16 K, 17814 kPa | 1379.3
333.16 K, 17848 kPa | 1379.5
333.16 K, 17875 kPa | 1379.6
333.16 K, 18144 kPa | 1381.2
333.16 K, 18172 kPa | 1381.4
333.16 K, 18199 kPa | 1381.6
333.16 K, 18229 kPa | 1381.8
333.16 K, 18263 kPa | 1382
333.16 K, 18289 kPa | 1382
333.16 K, 18321 kPa | 1382.2
333.16 K, 18352 kPa | 1382.4
333.16 K, 18378 kPa | 1382.7
333.16 K, 18409 kPa | 1382.9
333.16 K, 18440 kPa | 1382.9
333.16 K, 18582 kPa | 1383.6
333.16 K, 18605 kPa | 1383.8
333.16 K, 18633 kPa | 1384.2
333.16 K, 18653 kPa | 1384.2
333.16 K, 18684 kPa | 1384.3
333.16 K, 18715 kPa | 1384.6
333.16 K, 18741 kPa | 1384.6
333.16 K, 18777 kPa | 1384.9
333.16 K, 18809 kPa | 1385.1
333.16 K, 18836 kPa | 1385.3
333.16 K, 18859 kPa | 1385.4
333.16 K, 18889 kPa | 1385.6
333.16 K, 18924 kPa | 1385.8
333.16 K, 18951 kPa | 1385.8
333.16 K, 18974 kPa | 1385.9
333.16 K, 19009 kPa | 1386.3
333.16 K, 19047 kPa | 1386.4
333.16 K, 19071 kPa | 1386.6
333.16 K, 19105 kPa | 1386.7
333.16 K, 19128 kPa | 1386.7
333.16 K, 19166 kPa | 1387
333.16 K, 19192 kPa | 1387.1
333.16 K, 19220 kPa | 1387.4
333.16 K, 19248 kPa | 1387.5
333.16 K, 19286 kPa | 1387.9
333.16 K, 19310 kPa | 1387.8
333.16 K, 19346 kPa | 1388
333.16 K, 19381 kPa | 1388.3
333.16 K, 19409 kPa | 1388.4
333.16 K, 19445 kPa | 1388.6
333.16 K, 19468 kPa | 1388.8
333.16 K, 19716 kPa | 1390.1
333.16 K, 19745 kPa | 1390.3
333.16 K, 19776 kPa | 1390.5
333.16 K, 19803 kPa | 1390.5
333.16 K, 19831 kPa | 1390.7
333.16 K, 19870 kPa | 1391
333.16 K, 19894 kPa | 1391
333.16 K, 19927 kPa | 1391.2
333.16 K, 19959 kPa | 1391.4
333.16 K, 19987 kPa | 1391.6
333.16 K, 20022 kPa | 1391.8
333.16 K, 20050 kPa | 1391.9
333.16 K, 20077 kPa | 1392
333.16 K, 20115 kPa | 1392.3
333.16 K, 20146 kPa | 1392.4
333.16 K, 20174 kPa | 1392.5
333.16 K, 20207 kPa | 1392.8
333.16 K, 20238 kPa | 1392.9
333.16 K, 20266 kPa | 1393.1
333.16 K, 20294 kPa | 1393.3
333.16 K, 20328 kPa | 1393.5
333.16 K, 20352 kPa | 1393.5
333.16 K, 20393 kPa | 1393.9
333.16 K, 20421 kPa | 1393.8
333.16 K, 20453 kPa | 1394.1
333.16 K, 20487 kPa | 1394.3
333.16 K, 20512 kPa | 1394.4
333.16 K, 20545 kPa | 1394.6
333.16 K, 20579 kPa | 1394.8
333.16 K, 20612 kPa | 1395
333.16 K, 20640 kPa | 1395.1
333.16 K, 20661 kPa | 1395.4
333.16 K, 20682 kPa | 1395.2
333.16 K, 20713 kPa | 1395.4
333.16 K, 21425 kPa | 1399.3
333.16 K, 21458 kPa | 1399.4
333.16 K, 21479 kPa | 1399.5
333.16 K, 21507 kPa | 1399.6
333.16 K, 21537 kPa | 1399.9
333.16 K, 21562 kPa | 1399.9
333.16 K, 21595 kPa | 1400.1
333.16 K, 21615 kPa | 1400.2
333.16 K, 21797 kPa | 1401.1
333.16 K, 21860 kPa | 1401.5
333.16 K, 21957 kPa | 1401.9
333.16 K, 21990 kPa | 1402
333.16 K, 22016 kPa | 1402.3
333.16 K, 22042 kPa | 1402.3
333.16 K, 22082 kPa | 1402.5
333.16 K, 22116 kPa | 1402.8
333.16 K, 22154 kPa | 1402.9
333.16 K, 22183 kPa | 1403.1
333.16 K, 22220 kPa | 1403.2
333.16 K, 22249 kPa | 1403.6
333.16 K, 22279 kPa | 1403.5
333.16 K, 22309 kPa | 1403.8
333.16 K, 22335 kPa | 1403.8
333.16 K, 22370 kPa | 1404.1
333.16 K, 22404 kPa | 1404.2
333.16 K, 22435 kPa | 1404.3
333.16 K, 22473 kPa | 1404.6
333.16 K, 22511 kPa | 1404.8
333.16 K, 22537 kPa | 1404.9
333.16 K, 22575 kPa | 1405.2
333.16 K, 22605 kPa | 1405.3
333.16 K, 22642 kPa | 1405.4
333.16 K, 22672 kPa | 1405.6
333.16 K, 22698 kPa | 1405.8
333.16 K, 22736 kPa | 1405.9
333.16 K, 22762 kPa | 1406.1
333.16 K, 22980 kPa | 1407.1
333.16 K, 23011 kPa | 1407.2
333.16 K, 23037 kPa | 1407.4
333.16 K, 23068 kPa | 1407.5
333.16 K, 23104 kPa | 1407.9
333.16 K, 23133 kPa | 1407.8
333.16 K, 23162 kPa | 1408
333.16 K, 23193 kPa | 1408.1
333.16 K, 23228 kPa | 1408.3
333.16 K, 23254 kPa | 1408.5
333.16 K, 23297 kPa | 1408.8
333.16 K, 23324 kPa | 1408.8
333.16 K, 23358 kPa | 1409
333.16 K, 23425 kPa | 1409.3
333.16 K, 23453 kPa | 1409.5
333.16 K, 23480 kPa | 1409.5
333.16 K, 23515 kPa | 1409.6
333.16 K, 23559 kPa | 1410
333.16 K, 23594 kPa | 1410.2
333.16 K, 23633 kPa | 1410.3
333.16 K, 23662 kPa | 1410.4
333.16 K, 23693 kPa | 1410.4
333.16 K, 23728 kPa | 1410.8
333.16 K, 23763 kPa | 1411
333.16 K, 23795 kPa | 1411
333.16 K, 23823 kPa | 1411.3
333.16 K, 23890 kPa | 1411.6
333.16 K, 23921 kPa | 1411.7
333.16 K, 23957 kPa | 1411.9
333.16 K, 23993 kPa | 1412
333.16 K, 24020 kPa | 1412.2
333.16 K, 24055 kPa | 1412.4
333.16 K, 24089 kPa | 1412.4
333.16 K, 24110 kPa | 1412.7
333.16 K, 24140 kPa | 1412.7
333.16 K, 24184 kPa | 1413
333.16 K, 24206 kPa | 1413.1
333.16 K, 24242 kPa | 1413.2
333.16 K, 24269 kPa | 1413.3
333.16 K, 24304 kPa | 1413.6
333.16 K, 24333 kPa | 1413.8
333.16 K, 24369 kPa | 1413.7
333.16 K, 24396 kPa | 1414
333.16 K, 24436 kPa | 1414.2
333.16 K, 24468 kPa | 1414.3
333.16 K, 24500 kPa | 1414.4
333.16 K, 24531 kPa | 1414.6
333.16 K, 24558 kPa | 1414.7
333.16 K, 24594 kPa | 1414.9
333.16 K, 24621 kPa | 1415.1
333.16 K, 24657 kPa | 1415.2
333.16 K, 24688 kPa | 1415.3
333.16 K, 24720 kPa | 1415.5
333.16 K, 24751 kPa | 1415.7
333.16 K, 24782 kPa | 1415.8
333.16 K, 24810 kPa | 1415.9
333.16 K, 24838 kPa | 1416
333.16 K, 24869 kPa | 1416
333.16 K, 24910 kPa | 1416.4
333.16 K, 24944 kPa | 1416.5
333.16 K, 24980 kPa | 1416.7
333.16 K, 25007 kPa | 1416.8
333.16 K, 25039 kPa | 1417.1
333.16 K, 25088 kPa | 1417.1
333.16 K, 25111 kPa | 1417.2
333.17 K, 17403 kPa | 1376.8
333.17 K, 17429 kPa | 1376.9
333.17 K, 17457 kPa | 1377.4
333.17 K, 18467 kPa | 1383.1
333.17 K, 18490 kPa | 1383
333.17 K, 18517 kPa | 1383.4
333.17 K, 18552 kPa | 1383.6
333.17 K, 23382 kPa | 1409
